One experiment has as its system human hepatocytes. Particulars: compared to control cells; cited from earlier work.
In experiment [1] the test system is rat hepatic stellate cells. As to the kind of experiment: In vitro stellate cell activation (RTQ-PCR of SMA, collagen, fibronectin mRNA). The experiment is classed as cell-based. As for the experimental part: Rat hepatic stellate cells were isolated from male CRL:CD(SD)IGS® rats (Charles River Laboratories) as described previously. Cells were plated into six well plates at a density of 1×10^6 cells/well in DMEM-F12 media with 20% FCS. Twenty-four hours after plating, the media was replaced with media containing 0.1% DMSO (vehicle control) or 10 uM GW4064 with 0.1% DMSO. Following 2, 4, 6 or 8 days of treatment, total RNA was extracted from the cells using TRIzol reagent (Invitrogen) according to the manufacturer's directions. The RNA was treated with DNase I (Ambion, Austin, Tex.) at 37° C. for 30 min, followed by inactivation at 75° C. for 5 min. RNA was then quantitated using the RiboGreen RNA quantitation kit (Molecular Probes, Eugene, Oreg.). RNA expression was measured by RTQ-PCR using an ABI PRISM 7700 or 7900 Sequence Detection System (PE Applied Biosystems, Foster City, Calif.). For analysis, gene expression was normalized to 18S RNA. Follow-up studies were conducted using the same study design, except for a lower dose of GW4064 (3 uM). In the vehicle control group, SMA, collagen and fibronectin peaked at six days of culture; collagen and fibronectin expression began to decline following eight days in culture (FIGS. 4A-4C, white bars). […] (FIGS. 4a-4c, shaded bars; asterisk indicates p<0.05 compared to the vehicle treatment at the indicated timepoint).

In experiment [2] the test system is bile duct ligated (BDL) rats. As to the kind of experiment: Bile duct ligated (BDL) rats: serum chemistry, liver histology and liver fibrosis marker mRNA. Format: in vivo, rat. The following applies: for level of Collagen I mRNA in liver / level of alpha SMA mRNA in liver: compared to sham operated rats (p<0.05). The protocol: A study of the effects of an FXR agonist (GW4064) on the livers of bile duct ligated (BDL) rats was carried out. This study was initially devised to examine the effects of FXR agonist on non-fibrotic liver damage due to cholestosis. The present researchers additionally went on to examine samples from these experiments for markers of liver fibrosis.
Male Sprague-Dawley rats (approximately 300 grams) were obtained from Charles River Laboratories Inc (Raleigh, N.C.) and were maintained on a 12 hour light/12 hour dark light cycle. Animals were anesthetized by the administration of 2-3% isoflurane. Laparotomy was performed under sterile technique and the liver and duodenum gently displaced to reveal the common bile duct. The bile duct was separated from the surrounding tissue and two ligatures of 4-0 Ethilon were placed around it. The bile duct was clamped between the two ligatures with an aneurysm clamp and the ligatures drawn tight. An additional ligature was placed proximal to the first (near the liver). The clamp was removed and the bile duct severed between the ligatures. The muscle wall was closed with 4-0 Vicryl and the skin closed with staples. Sham controls underwent laparotomy, but the bile ducts were not ligated or transected. Animals were allowed food and water ad libitum throughout the study period. Animals were anesthetized with 2-3% isoflurane and sacrificed by cardiac puncture.
Twenty-four hours after surgery, groups of rats (n=6-8) received intraperitoneal injections once daily for four days, of either (a) 5 ml/kg corn oil (vehicle); (b) 30 mg/kg GW4064 in corn oil; or (c) 15 mg/kg TUDCA in corn oil (taurine-conjugated ursodeoxycholic acid, used clinically to treat cholestosis). Sham operated animals received intraperitoneal injections of 5 ml/kg corn oil vehicle 24 hours after sham operation. Four hours after the last dose on day four, blood and livers were collected.
Serum activities of alanine aminotransferase (ALT), asparate aminotransferase (AST), sorbital dehydrogenase (SDH), y-glutamyl transferase (GGT), lactate dehydrogenase (LDH), alkaline phosphatase (ALP) and total bilirubin were determined. Serum bile acids (BILEA) were determined using a commercially available assay (Sigma Chemical Co., St Louis, Mo.).
In humans, liver fibrosis secondary to cholestatic disease is known to occur clinically. Experimentally, bile duct ligation in rats as a model of cholestosis is also known to cause liver fibrosis. In view of this, the present researchers additionally examined the BDL rat liver tissue for markers of liver fibrosis. Levels of Smooth Muscle Actin (SMA) mRNA, Collagen I mRNA, and TGFbeta1 mRNA were measured; results are graphed in FIG. 1a-1c where white bars=sham operated rats; black bars=vehicle treated BDL rats; striped bars=GW4064 treated BDL rats; and dotted bars=TUDCA treated BDL rats.

Experiment [3] deals with rats treated with carbon tetrachloride (CCl4). As to the kind of experiment: Chronic liver fibrosis in vivo model (twice weekly CCl4 up to eight weeks). On the set-up: species or system rat. As for the experimental part:
Male CRL:CD(SD)IGS® rats (Charles River Laboratories) weighing 250-350 were randomized into 3 groups. All rats received twice weekly intraperitoneal (ip) injections of 20% carbon tetrachloride (CCl4) in corn oil (5 ml/kg) for the duration of the study. Two weeks after the initiation of the CCl4 injections, rats in Group 1 (CCL4+Vehicle) began receiving vehicle (6% Encapsin; Cerestar Inc., IN) twice daily, rats in Group 2 (CCL4+GW4064) began receiving 30 mg/kg GW4064 in vehicle twice daily, and rats in Group 3 (CCL4+Silymarin) began receiving silymarin in vehicle twice daily. (Silymarin reduces TGFb1 and collagen deposition in fibrotic rat liver (Jia et al., J Hepatol 2001 September; 35(3):392-8).
Multiple rats from each group were sacrificed after each of four, six and eight weeks on study. Rats were also sacrificed following the two weeks of CCL4 exposure, prior to initiation of drug treatment, as well as five untreated Naive rats. An additional five untreated Naïve rats were also sacrificed at the eight week timepoint. Plasma, serum, kidneys and livers were collected for analysis. Histopathological, mRNA and serum markers of liver damage and liver fibrosis were examined.
Histopathology: The tissues were processed by standard histological techniques. Liver sections were stained with hematoxylin and eosin (H&E) using standard protocols and examined by light microscopy for necrosis and other structural changes. Immunohistochemistry was used to visualize α-smooth muscle actin (Sigma, St Louis, Mo.) according to the manufacturer's instructions. Sirius Red (Sigma, St Louis, Mo.) was used to visualize collagen according to the manufacturer's instructions. Liver sections were stained with Masson's trichrome (Sigma, St Louis, Mo.) according to the manufacturer's instructions.
Reverse Transcription Quantitative Polymerase Chain Reaction (RTQ-PCR). Total RNA was extracted from sections of rat liver using TRIzol reagent (Invitrogen) according to the manufacturer's directions. The RNA was treated with DNase I (Ambion, Austin, Tex.) at 37° C. for 30 min, followed by inactivation at 75°C. for 5 min. RNA was then quantitated using the RiboGreen RNA quantitation kit (Molecular Probes, Eugene, Oreg.). RNA expression was measured by RTQ-PCR using an ABI PRISM 7700 or 7900 Sequence Detection System (PE Applied Biosystems, Foster City, Calif.).
Serum Analysis: Serum TIMP1 (R&D Systems, Minneapolis, Minn.) levels were measured according to the manufacturer's directions.
(§1) Statistical Analysis: All data were analyzed by one-way analysis of variance (ANOVA) followed by Duncan's multiple range test. The 0.05 level of probability was used as the criteria of significance.

The test system is the same in experiment [4]. As to the kind of experiment: Acute liver fibrosis in vivo model (single dose CCl4). Set-up: species or system rat. The protocol:
Male CRL:CD(SD)IGS® rats (Charles River Laboratories) weighing 250-280 g were randomized into three groups of 5-6 rats per group. On day 1, rats in Group 1 (Control) were given a single intraperitoneal (ip) injection of corn oil (5 ml/kg). Rats in Groups 2 and 3 were given a single ip injection of 30% carbon tetrachloride (CCl4) in corn oil (5 ml/kg). Beginning four hours after the initial ip injections and continuing for four days, rats in Group 1 (Control) and Group 2 (CCl4) were given vehicle (20% Encapsin; Cerestar Inc., IN) by oral gavage twice daily. Beginning four hours after the initial ip injections and continuing for four days, rats in Group 3 (CCl4+GW4064) were given 30 mg/kg GW4064 in vehicle by oral gavage, twice daily for four days.
Four hours after the final oral dose on day four, rats were sacrificed under deep anesthesia and blood and livers were collected. A portion of liver from each rat was fixed in 10% phosphate-buffered formalin (pH 7.4). The remaining livers were snap frozen in liquid nitrogen and stored at −80° C. prior to RNA extraction.
Histopathology: The tissues were processed by standard histological techniques. Liver sections were stained with hematoxylin and eosin (H&E) using standard protocols and examined by light microscopy for necrosis and other structural changes. Immunohistochemistry was used to visualize α-smooth muscle actin (DAKO Corporation, CA) according to the manufacturer's instructions. Sirius Red (Sigma, St Louis, Mo.) was used to visualize collagen according to the manufacturer's instructions.
Reverse Transcription Quantitative Polymerase Chain Reaction (RTQ-PCR). Total RNA was extracted from rat liver using TRIzol reagent (Invitrogen) according to the manufacturer's directions. The RNA was treated with DNase I (Ambion, Austin, Tex.) at 37° C. for 30 min, followed by inactivation at 75° C. for 5 min. RNA was then quantitated using the RiboGreen RNA quantitation kit (Molecular Probes, Eugene, Oreg.). RNA expression was measured by RTQ-PCR using an ABI PRISM 7700 or 7900 Sequence Detection System (PE Applied Biosystems, Foster City, Calif.).
as §1

Setting [5] is: 3 uM, eight days, compared to vehicle.
[6] abbreviates: 3 uM, six days, compared to vehicle.
Setting [7] is: 10 uM, eighth day, compared to control group, normalized to 18S.
The mark [8] stands for this setting: 10 uM, six days, compared to vehicle control group.
The mark [9] stands for this setting: 30 mg/kg GW4064 or 15 mg/kg TUDCA ip once daily for four days, compared to vehicle-treated BDL rats.
Setting [10] is: day four, compared to vehicle-treated BDL rats.
Setting [11] is: ip once daily for four days, compared to vehicle treated BDL rats.
Setting [12] is: twice daily from week 2, compared to CCl4+Vehicle rats.
[13] abbreviates: twice daily from week 2, compared to CCl4+Vehicle rats, 8 week timepoint.
[14] abbreviates: 30 mg/kg oral gavage twice daily for four days after single CCl4, compared to CCl4+V animals.
Setting [15] is: 30 mg/kg oral twice daily four days, compared to control.
The mark [16] stands for this setting: 30 mg/kg oral twice daily four days, compared to group 2 (CCl4+vehicle), p<0.05.

With `CC(C)c1onc(-c2c(Cl)cccc2Cl)c1COc1ccc(/C=C/c2cccc(C(=O)O)c2)c(Cl)c1` [GW4064], the “expression of Fibroblast Growth Factor 19 (FGF19)” value with human hepatocytes is on record as “increased”. Further, in experiment [1] (setting [5]), the “collagen mRNA” value is recorded as “not significantly different from vehicle”, the “decrease of SMA mRNA” value is listed as 40% and the “fibronectin mRNA” value was “not significantly different from vehicle”. For the same molecule, in experiment [1] (setting [6]), the “decrease of SMA mRNA” value was 55%, the “decrease of collagen mRNA” value came to 31% and the “decrease of fibronectin mRNA” value is reported as 28%. In experiment [1] (setting [7]), the “decrease of SMA mRNA” value came to 84%, the “decrease of collagen mRNA” value was 51% and the “decrease of fibronectin mRNA” value turned out to be 79%. Further, in experiment [1] (setting [8]), the “SMA mRNA” value is “decreased” and the “fibronectin mRNA” value is “decreased”. In experiment [2] (setting [9]), the “serum level of ALT” value was “reductions” and the “serum level of LDH” value was “reductions”. Moreover, the “level of TGFb1 mRNA in liver” value in experiment [2] (day four, compared to BDL rats receiving vehicle or TUDCA) is reported as “significantly reduced”. For the same molecule, in experiment [2] (day four), the “level of Collagen I mRNA in liver” value is given as “significantly different” and the “level of alpha SMA mRNA in liver” value was “significantly different”. Besides, the “number of mitotic nuclei (liver histology)” value in experiment [2] (day four, compared to vehicle treatment) is recorded as “reduced”. In experiment [2] (setting [10]), the “bile duct proliferation (liver histology)” value is “reduced bile duct proliferation”; the “fatty cell degeneration (liver histology)” value is on record as “decreased fatty cell degeneration”; the “liver necrotic lesions (histology)” value is “qualitatively fewer and smaller necrotic lesions”. Moreover, in experiment [2] (setting [11]), the serum bile acids entry is “did not significantly reduce”, the “serum level of ALP” value is reported as “did not significantly reduce”, the “serum level of GGT” value is “did not significantly reduce” and the “serum level of SDH” value is listed as “did not significantly reduce”. Further, the serum total bilirubin entry in experiment [2] (setting [11]) was “did not significantly reduce”. In experiment [2] (ip once daily for four days, compared to vehicle-treated BDL rats), the “serum level of AST” value is given as “reductions”. In addition, the “liver collagen deposition (Sirius Red)” value in experiment [3] (twice daily from week 2 (GW4064 30 mg/kg), six and eight week timepoints, compared to CCl4+V animals) is given as “reduced collagen deposition”. In experiment [3] (setting [12]), the “liver TGFb1 mRNA” value is “unchanged” and the “reduction in liver SMA mRNA” value is “not statistically significant”. In addition, in experiment [3] (setting [13]), the “liver Collagen I mRNA” value was “significant reductions” and the “liver TIMP1 mRNA” value is given as “significant reductions”. In addition, in experiment [3] (twice daily from week 2, compared to CCl4+Vehicle treated rats at 8 weeks, p<0.05), the “serum TIMP1” value is “significant reductions”. Besides, in experiment [4] (setting [14]), the “liver SMA (immunohistochemistry)” value is “reduced SMA” and the “liver collagen deposition (Sirius Red)” value is recorded as “reduced collagen deposition”. Moreover, in experiment [4] (setting [15]), the “liver Collagen I mRNA” value is listed as “not statistically different from control”, the “liver SMA mRNA” value is “not statistically different from control” and the “liver TGFb1 mRNA” value was “not statistically different from control”. Further, in experiment [4] (setting [16]), the “liver Collagen I mRNA” value is on record as “significantly decreased” and the “liver SMA mRNA” value is “significantly decreased”.

Take `C[C@H](CCC(=O)NCCS(=O)(=O)O)[C@H]1CC[C@H]2[C@@H]3[C@@H](O)C[C@@H]4C[C@H](O)CC[C@]4(C)[C@H]3CC[C@]12C` [TUDCA, taurine-conjugated ursodeoxycholic acid, reference compound]: the “serum level of LDH” value in experiment [2] (setting [9]) is recorded as “significant decrease”. In addition, in experiment [2] (day four), the “level of Collagen I mRNA in liver” value was “significantly different” and the “level of alpha SMA mRNA in liver” value is recorded as “significantly different”. In addition, in experiment [2] (day four, compared to vehicle treated BDL rats), the “liver sections, histology overall (necrosis, bile duct proliferation)” value is “did not appear to differ substantially from vehicle treated BDL rats”.

(Values after patent US20110021475A1, “Compositions And Methods for Treatment Of Fibrosis” (priority 2003, published 2011).)
